Experiment [1] deals with Aspergillus fumigatus. Put plainly: Auxiliary route: untargeted metabolomic profiling of the treatments, 25° C. (FCROS, bipartite network). The format is cell-based. From the text:
(§1) The auxiliary route follows an untargeted metabolomic profiling of the treatments. […] In the direct route, a peak area cutoff of 5×10^5 was used to detect signals with significant peaks between a treatment and solvent control. Although their peak area cutoff of 5×10^5 eliminates most noise, it is a linear cutoff and leaves some residual noise in the analysis due to column creep. Therefore, the dataset for the auxiliary route can be curated from the experimental study using baseline correction preprocessing tools. Following the processes defined by “Dynamics of Metabolite Induction in Fungal Co-cultures by Metabolomics at Both Volatile and Non-volatile Levels”, Front. Microbiol., 5 Feb. 2018 Sec. Antimicrobials, Resistance and Chemotherapy, Azzollini et al., peaks can be picked using GridMass and aligned using RANSAC alignment or another suitable alignment tool. Peak data can then be matched to known profiles in KEGG and LipidMap.
(§2) Peak significance was determined upon FCROS scoring. Non-significant analytes were not included in the network. An interactive map of the network illustrating the details of each analyte (m/z ratio, retention times, p-values, etc.) can be generated.
The untargeted extraction of statistically relevant peaks using the auxiliary route can yield a significant number of analytes for potential exploration. The edges and neighbors of the nodes in the network can be used to determine which analytes to be first considered for targeted exploration. Analytes of particular interest express both […] depending on the treatment considered. Additionally, analytes of extreme up- and down-regulation can be of interest along with the node degree values of the analytes. FIG. 13D illustrates significant peaks with log2 fold change greater than 1 or less than −1. The total number of interactions (edges in the network) found with the auxiliary route is considerably higher compared to the network in the direct route. […] At 25 C, analytes ID 26 and ID 105 were matched to fraxetin via the KEGG database query. […] Analyte ID 222 was matched to ICAS #18 from the LipidMap database. […] At the same time, no single highly produced analyte is triggered by all three chitooligosaccharides.

Experiment [2] has as its system Aspergillus fumigatus. Put plainly: Auxiliary route: untargeted analytes under the treatments, 37° C. The format is cell-based.
Text: as §1, §2
Considering the analytes from the network at 37° C. shown in FIG. 14D, twelve significant analyte peaks with log2 fold change intensities greater than 1 were extracted from the processed data. All three CO treatments at 37° C. triggered no shared analytes. Nor did the two lipid treatments trigger a shared analyte. Ten of the twelve analytes with log2 fold change intensities greater than 1 or less than −1 are uniquely triggered by a single treatment (i.e., analytes with node degree 1), as shown in FIG. 14D. Of the twelve significant extracted analyte peaks, eleven were identified from database queries. Analytes identified by KEGG were putative metabolites, hellebrigenin 3-acetate (ID 10), fraxetin (ID 16), beta-cyclopiazonate (ID 70), phenylbutazone (ID 71), borrerine (ID 89), clofibrate (ID 110), alangimarine (IDs 163 and 164), and sulindac (IDs 168 and 169). LipidMaps identified 6′-hydroxysiphonaxanthin decenoate (ID 21). […] There are no connections in ID numbers between the 25° C. and 37° C. experiments.

The test system of experiment [3] is Aspergillus fumigatus. Put plainly: Direct route: production of specialized metabolites under exogenous treatments, 37° C. The format is cell-based. From the text:
(§3) Several examples of a bipartite network framework of treatments and metabolomic outputs will now be described. Bipartite networks are built to quantify the relationship between metabolites and the sources triggering their production, such as various exogenous biomolecules or compounds. As discussed above, a bipartite network (or graph) is a collection of nodes connected by lines named edges. The nodes represent the entities or elements of a system, and the edges represent the interaction or relationship amongst the features. For example, in cell metabolism, a metabolic network represents the biochemical reactions amongst substrates that result in products. The nodes of the metabolic network represent the substrates, and the edges represent the metabolic reactions amongst the substrates. For example, this framework can assess the effect of exogenous compounds on the production of specialized microbial metabolites. The nodes can be classified into two types: the treatments and the specialized metabolites, resulting in a bipartite network. The edges represent the magnitude of up- or down-regulation of specialized metabolites caused by the treatments compared to a controlled case (measured by the magnitude of log2 fold change using processed spectral data from targeted LC-MS analysis).
The bipartite network provides an in-depth quantification and clear visual representation of a treatment's ability to trigger the production of various specialized metabolites. Two routes are provided to assess specialized metabolite production using the bipartite network formulation, as shown in FIG. 15. The first is the direct route 1502 to determine the biosynthesis of known and putative metabolites, whereas the second is the auxiliary route 1504 to assess the production of unknown analytes. In the direct route 1502, the network nodes include treatments that elucidate known and putative metabolites by a microbe. Network centrality measurements 1506 are used to rank the treatments and the specialized metabolites. […]

Experiment [4] deals with Aspergillus fumigatus. Put plainly: Direct route: production of known and putative specialized metabolites under exogenous treatments, 25° C. (targeted LC-MS, bipartite network). Format: cell-based. The note with it: for broadcasting PageRank of the treatments: minimum-maximum normalized; for broadcasting PageRank of the treatments / node out-strength of the treatments (effect on triggering metabolite production): rank among treatments.
Text: as §3
The bipartite network provides an in-depth quantification and clear visual representation of a treatment's ability to trigger the production of various specialized metabolites. Two routes are provided to assess specialized metabolite production using the bipartite network formulation, as shown in FIG. 15. The first is the direct route 1502 to determine the biosynthesis of known and putative metabolites, whereas the second is the auxiliary route 1504 to assess the production of unknown analytes. In the direct route 1502, the network nodes include treatments that elucidate known and putative metabolites by a microbe. Network centrality measurements 1506 are used to rank the treatments and the specialized metabolites. Those measurements can be used to identify the most influential nodes in the bipartite network. […] The treatments can be ranked based on their capability to trigger metabolite production, and the metabolites can be classified based on their popularity in being activated by various treatments. In the auxiliary route, the bipartite networks are built using analyte peaks extracted from post-processed spectral data. Further, the systems and methods of the present disclosure analyze the edges and neighborhoods of nodes to distinguish unique analytes among the total pool.
The bipartite network framework was used in this example to reveal the effect of various chitooligosaccharides and lipid treatments on triggering the production of specialized metabolites in Aspergillus fumigatus. Various chitooligosaccharides and lipids were applied as exogenous treatments since they are common constituents found in most fungi. Moreover, it has been previously shown that lipids influence fungal metabolomics; however, the impacts of chitooligosaccharides have remained unknown. In contrast, chitooligosaccharides are reported to have antifungal activity, which might potentially influence the metabolomic profile in Aspergillus species. This example highlights the influence of temperature on the production of specialized metabolites by conducting the experiments at 25 and 37° C. Aspergillus fumigatus is generally examined at 25° C. to explore the extent of its metabolomic capabilities or its lifestyle as a soilborne saprotroph that recycles environmental carbon and nitrogen. However, the fungus is also an opportunistic human pathogen and is commonly examined at 37° C. for its ability to cause aspergillosis, a lung disease found in immunocompromised patients. […]

In experiment [5] the test system is Aspergillus fumigatus. The note with it: 37° C.; cited from earlier work.

Regarding `CC(=O)N[C@H]1[C@H](O[C@H]2[C@H](O)[C@@H](NC(C)=O)C(O)O[C@@H]2CO)O[C@H](CO)[C@@H](O[C@@H]2O[C@H](CO)[C@@H](O[C@@H]3O[C@H](CO)[C@@H](O)[C@H](O)[C@H]3NC(C)=O)[C@H](O)[C@H]2NC(C)=O)[C@@H]1O` (some centres unmarked) [CO4], the “production of analyte 16” value in the experiment with Aspergillus fumigatus [1] was “significantly produced”. For the same compound, in the experiment with Aspergillus fumigatus [2], the “regulation of analyte 163” value was “downregulated” and the “regulation of analyte 168” value is given as “downregulated”. Moreover, the “effectiveness of treatment at triggering metabolite production (node strength and PageRank)” value (“effectiveness of treatment” below) in the experiment with Aspergillus fumigatus [3] is reported as “poor at triggering the production of metabolites”. Besides, in the experiment with Aspergillus fumigatus [4], the “number of metabolites triggered” value is reported as “six”, the “number of unique metabolites triggered” value is “two”, the “broadcasting PageRank of the treatments” value was “most effective treatment” and the “node out-strength of the treatments (effect on triggering metabolite production)” value (“node out-strength of the treatments” below) was “highest effect on triggering metabolite production”.

As for `CC(=O)N[C@H]1[C@H](O[C@H]2[C@H](O)[C@@H](NC(C)=O)[C@H](O[C@H]3[C@H](O)[C@@H](NC(C)=O)[C@H](O[C@H]4[C@H](O)[C@@H](NC(C)=O)C(O)O[C@@H]4CO)O[C@@H]3CO)O[C@@H]2CO)O[C@H](CO)[C@@H](O[C@@H]2O[C@H](CO)[C@@H](O[C@@H]3O[C@H](CO)[C@@H](O[C@@H]4O[C@H](CO)[C@@H](O[C@@H]5O[C@H](CO)[C@@H](O)[C@H](O)[C@H]5NC(C)=O)[C@H](O)[C@H]4NC(C)=O)[C@H](O)[C@H]3NC(C)=O)[C@H](O)[C@H]2NC(C)=O)[C@@H]1O` (some centres unmarked) [CO8], in the experiment on Aspergillus fumigatus [2], the “regulation of analyte 163” value is on record as “upregulated”. Also, in the experiment on Aspergillus fumigatus [4], the “broadcasting PageRank of the treatments” value is “followed by CO8” and the “node out-strength of the treatments” value is “minor influence on inducing metabolite production”.

Turning to `CCCCCCCCCCCCCCCC(=O)O` [palmitic acid], in the experiment on Aspergillus fumigatus [1] (with respect to the control), the “regulation of ICAS #18 (analyte ID 222)” value is reported as “significantly down regulates”. Moreover, in the experiment on Aspergillus fumigatus [2], the “regulation of analyte 163” value is “upregulated”, the “regulation of analyte 168” value is on record as “upregulated” and the “regulation of analyte ID 90” value is “upregulated”. The “effectiveness of treatment” value in the experiment with Aspergillus fumigatus [3] is “most effective treatment on metabolite production”. Besides, in the experiment with Aspergillus fumigatus [4], the “broadcasting PageRank of the treatments” value is given as “least broadcasting PageRank measure” and the “node out-strength of the treatments” value was “minor influence on inducing metabolite production”.

Turning to `CCCCCCCC/C=C\CCCCCCCC(=O)O` [oleic acid], in the experiment on Aspergillus fumigatus [2], the “regulation of analyte 168” value was “downregulated”. In the experiment with Aspergillus fumigatus [5], the germination result is on record as “inducer of germination”. Further, in the experiment with Aspergillus fumigatus [3], the “effectiveness of treatment” value is recorded as “poor at triggering the production of metabolites”. In the experiment with Aspergillus fumigatus [4], the “number of metabolites triggered” value is reported as “five”, the “number of unique metabolites triggered” value was “two” and the “node out-strength of the treatments” value is recorded as “then oleic acid”. In the experiment on Aspergillus fumigatus [4] (listed as Oleic acid), the “broadcasting PageRank of the treatments” value is reported as “higher broadcasting PageRank value than CO5”.

For `CC(=O)N[C@H]1[C@H](O[C@H]2[C@H](O)[C@@H](NC(C)=O)[C@H](O[C@H]3[C@H](O)[C@@H](NC(C)=O)C(O)O[C@@H]3CO)O[C@@H]2CO)O[C@H](CO)[C@@H](O[C@@H]2O[C@H](CO)[C@@H](O[C@@H]3O[C@H](CO)[C@@H](O)[C@H](O)[C@H]3NC(C)=O)[C@H](O)[C@H]2NC(C)=O)[C@@H]1O` (some centres unmarked) [CO5], the “production of analyte 16” value in the experiment on Aspergillus fumigatus [1] was “significantly produced”. Besides, the “regulation of fraxetin (analytes ID 26 and ID 105)” value with Aspergillus fumigatus [1] (log2 fold change greater than 1 or less than −1) is “upregulated”. Moreover, the “regulation of analyte ID 90” value with Aspergillus fumigatus [2] is “upregulated”. Also, the “number of unique metabolites triggered” value in the experiment on Aspergillus fumigatus [4] is “one”.

The values are drawn from patent US20240079083A1, “USING BIPARTITE NETWORKS TO DETERMINE INTERACTIONS BETWEEN ANALYTES AND CHEMICAL TREATMENTS” (UT-Battelle, LLC, priority 2022, published 2024).
